Experiment [1] concerns S. aureus ATCC 29213. In words: MIC assay. The experiment is classed as cell-based, Staphylococcus aureus. On the procedure: 1. Staphylococcus aureus—the principal staphylococcal test micro-organism used in these studies was Staphylococcus aureus ATCC 29213. This strain is the one recommended for QC/QA purposes in Minimum Inhibitory Concentration (MIC) assays by the US Clinical and Laboratory Standards Institute (formerly the NCCLS), an FDA-recognised body.
(§1) The staphylococci and enterococci were cultured and maintained on Mueller-Hinton Medium (agar and broth) at pH 7.2; they were incubated aerobically at 37° C. for 24 hours.
(§2) This is a standard international method for quantitatively assessing the antimicrobial activity of a compound in a liquid medium. The method used a 96-well microtitre plate, capable of holding about 200 μl of liquid per well. […] The culture media were as described above for the relevant test organisms.
(§3) The wells were inoculated with a liquid suspension of freshly grown micro-organism and incubated under the conditions described above. After incubation, the microtitre plate was examined visually (with the aid of a light box) for cloudiness in each well, which would indicate microbial growth. The MIC value was recorded as the lowest concentration of test compound required to inhibit microbial growth, i.e., the lowest concentration for which the liquid in the well remained clear.
(§4) The assays were conducted in duplicate and included both negative (culture medium only) and positive (culture medium, diluting solvent and inoculum) controls.
(§5) The following experiments all used S. aureus ATCC 29213 as the test organism. MIC, MBC and DDA assays, as described above, were carried out using a range of different benzoquinones and hydroquinones. Supplemented DDA assays, in the presence of salt, lipid and blood, were also conducted.

Experiment [2] has as its system P. acnes NCTC 737. Description: Disc diffusion assay (DDA). The format is cell-based, Propionibacterium acnes. As to conditions: for zone of inhibition at 200 µg/disc: Cutibacterium acnes, NCTC737, read-out: DDA (diameter of zone of inhibition). On the procedure: (§6) The Propionibacterium spp organisms were cultured and maintained on Wilkins-Chalgren Anaerobe Medium (agar and broth) at pH 6.0; cultures were incubated anaerobically at 37° C. for 72 hours.
(§7) A sterile paper disc was impregnated with a sample of the test compound and a minimum of 30 minutes allowed for the solvents to evaporate as far as possible. The disc was then placed on an agar plate onto which the test micro-organism had been inoculated. The plate was then incubated under the conditions described above, following which it was examined visually for signs of bacterial growth. […] The diameter of this zone of “inhibition” was measured using a ProtoCOL™ automated zone sizer (Synbiosis, Cambridge, UK).
(§8) The area of the zone of inhibition was calculated from the measured zone diameter (D) using the formula π(D/2)^2.
(§9) For most DDA assays, 200 μg of each compound was loaded onto each disc.

The test system of experiment [3] is P. acnes NCTC 737. Description: MBC assay. The experiment is classed as cell-based, Propionibacterium acnes. As for the experimental part:
as §6
(§10) This assay, normally carried out after an MIC assay, determines the minimum concentration of a compound that is lethal to the micro-organism being tested.
(§11) These samples were then individually sub-cultured on non-selective agar medium, under the incubation conditions described above. Following incubation they were examined visually for bacterial growth.
(§12) MIC, MBC and DDA assays, as described above, were carried out using a range of different benzoquinones and hydroquinones. Supplemented DDA assays, in the presence of salt and lipid, were also conducted.

Experiment [4] relates to P. acnes NCTC 737. Description: MIC assay. The format is cell-based, Propionibacterium acnes. As for the experimental part:
2. Propionibacterium spp.—the principal propionibacterial strain used in these studies was Propionibacterium acnes NCTC 737.
as §6, §2, §3, §4, §12

In experiment [5] the test system is S. aureus ATCC 29213. In words: MBC assay. The experiment is classed as cell-based, Staphylococcus aureus. As for the experimental part:
as §1, §10, §11, §5

The test system of experiment [6] is S. aureus ATCC 29213. Description: Supplemented disc diffusion assay. The experiment is classed as cell-based, Staphylococcus aureus. As to conditions: for zone of inhibition at 200 µg/disc: Staphylococcus aureus, ATCC29213, 24 h. On the procedure:
as §1, §7
(§13) Performance under these conditions can provide a more reliable indication of activity on topical application. For assays conducted using S. aureus strains, the supplements were defibrinated horse blood (5% v/v), lipid (Tween™ 80 at 1% v/v) and sodium chloride (100 mM). For those using Propionibacterium spp. strains, the supplements were lipid (Tween™ 80 at 1% v/v) and sodium chloride (100 mM).
as §5, §9

Experiment [7] relates to P. acnes NCTC 737. Description: Supplemented disc diffusion assay. As to conditions: for zone of inhibition at 200 µg/disc: Cutibacterium acnes, NCTC737, 72 h. The format is cell-based, Propionibacterium acnes. As for the experimental part:
as §6, §7, §13, §12, §9

For experiment [8], the system named is S. aureus ATCC 29213. Description: Disc diffusion assay (DDA). As to conditions: for zone of inhibition at 200 µg/disc: Staphylococcus aureus, ATCC29213, read-out: DDA (diameter of zone of inhibition). The experiment is classed as cell-based, Staphylococcus aureus. As for the experimental part:
as §1, §7, §8, §9

Where [9] appears, read: Staphylococcus aureus, ATCC29213, 24 h, pH 7.2.
[10] abbreviates: Cutibacterium acnes, NCTC737, 72 h, pH 6.
[11] abbreviates: Staphylococcus aureus, ATCC29213.

The structures appear in SMILES notation. ≈ marks a conversion by molar mass, not a printed value. Like-named read-outs stand apart in the source and are kept apart here.

The results in this text go back to patent US20090030086A1, “ANTIMICROBIAL AGENTS” (priority 2005, published 2009).

As for `Oc1cc(Cl)c(O)cc1Cl` [2,5-dichloro-p-hydroquinone], the MIC in experiment [1] (S. aureus ATCC 29213, Mueller-Hinton broth pH 7.2, aerobic, 37° C., 24 hours) was 15.6 µg/mL (≈ 87.1 µM); in experiment [4] (P. acnes NCTC 737, Wilkins-Chalgren broth pH 6.0, anaerobic, 37° C., 72 hours), 62.5 µg/mL (≈ 349 µM). Besides, the “DDA (diameter of zone of inhibition)” value was 13.46 mm in experiment [2] (P. acnes NCTC 737, unsupplemented agar, 200 μg per disc (2,6-dimethoxy-p-benzoquinone 100 μg)) and 19.90 mm in experiment [8] (S. aureus ATCC 29213, unsupplemented agar, 200 μg per disc (thymoquinone 50 μg, 2,6-dimethoxy-p-benzoquinone 100 μg)). Also, the MBC is 62.5 µg/mL (≈ 349 µM) in experiment [3] (P. acnes NCTC 737) and 15.6 µg/mL (≈ 87.1 µM) in experiment [5]. The MIC/MBC ratio in experiment [3] (P. acnes NCTC 737) and in experiment [5] was 1 in each case. In addition, the “DDA + lipid” value in experiment [6] (S. aureus ATCC 29213, Tween 80 at 1% v/v, 200 μg per disc (thymoquinone 50 μg, 2,6-dimethoxy-p-benzoquinone 100 μg)) worked out at 15.63 mm; in experiment [7] (P. acnes NCTC 737, Tween 80 at 1% v/v, 200 μg per disc (2,6-dimethoxy-p-benzoquinone 100 μg)), 0.0 mm. For the same compound, the “DDA + blood” value in experiment [6] (S. aureus ATCC 29213, defibrinated horse blood 5% v/v, 200 μg per disc (thymoquinone 50 μg, 2,6-dimethoxy-p-benzoquinone 100 μg)) is on record as 13.44 mm. The “DDA + salt” value in experiment [6] (S. aureus ATCC 29213, sodium chloride 100 mM, 200 μg per disc (thymoquinone 50 μg, 2,6-dimethoxy-p-benzoquinone 100 μg)) was 18.75 mm; in experiment [7] (P. acnes NCTC 737, sodium chloride 100 mM, 200 μg per disc (2,6-dimethoxy-p-benzoquinone 100 μg)), 18.64 mm.

For the compound `Cc1cc(O)c(C)c(O)c1` [2,5-dimethylresorcinol], the minimal inhibitory concentration (MIC) was found to be 15.6 µg/mL (≈ 113 µM) in experiment [1] (setting [9]) and 3.9 µg/mL (≈ 28.2 µM) in experiment [4] (setting [10]). The zone of inhibition at 200 µg/disc turned out to be 0 mm in experiment [2]; 0 mm in experiment [6] (read-out: DDA + blood); 13.8 mm in experiment [6] (read-out: DDA + lipid); 16.9 mm in experiment [6] (read-out: DDA + salt); 0 mm in experiment [7] (read-out: DDA + lipid); 0 mm in experiment [7] (read-out: DDA + salt). The zone of inhibition at 200 µg/disc in experiment [8] amounted to 16.7 mm. In addition, the MBC in experiment [3] (Cutibacterium acnes, NCTC737) was 31.2 µg/mL (≈ 226 µM); in experiment [5] (setting [11]), > 250 µg/mL. In addition, the results for the MIC/MBC ratio in experiment [3] (P. acnes NCTC 737) and in experiment [5] were 0.125 and <0.06, respectively.

Regarding `COC1=CC(=O)C=C(OC)C1=O` [2,6-dimethoxy-p-benzoquinone], the “activity against S. aureus ATCC 29213 (in words)” value in experiment [1] is on record as “strongly so”. The MIC was 7.8 µg/mL (≈ 46.4 µM) in experiment [1] (setting [9]) and 15.6 µg/mL (≈ 92.8 µM) in experiment [4] (setting [10]). The zone of inhibition at 200 µg/disc in experiment [2] is 0 mm; in experiment [6] (read-out: DDA + blood), 17.2 mm; in experiment [6] (read-out: DDA + lipid) it was 23.7 mm; in experiment [6] (read-out: DDA + salt), 22.2 mm; in experiment [7] (read-out: DDA + lipid), 15.6 mm; in experiment [7] (read-out: DDA + salt) it was 16.5 mm. Moreover, the zone of inhibition at 200 µg/disc in experiment [8] was determined as 22.2 mm. Moreover, the minimal bactericidal concentration (MBC) stood at 31.2 µg/mL (≈ 186 µM) in experiment [3] (Cutibacterium acnes, NCTC737) and 15.6 µg/mL (≈ 92.8 µM) in experiment [5] (setting [11]). Besides, the MIC/MBC ratio in experiment [3] (P. acnes NCTC 737) and in experiment [5] was 0.5 in each case.
